{"source": "patent US9254120B2", "about": "“Method for predicting breast cancer patient response to combination therapy” (Biodesix, Inc., priority 2011, dated 2016)", "key": {"[1]": {"test_system": "advanced breast cancer patients", "settings": "letrozole versus anastrozole; cited from earlier work"}, "[2]": {"test_system": "first line metastatic breast cancer patients", "description": "The total number of patients in this trial was 1258, 1164 pretreatment serum samples were available for analysis. We obtained valid VeriStrat test results for 1046 of these patients, of which 961 were classified as VeriStrat Good, 80 were VeriStrat Poor, and 5 were VeriStrat Indeterminate (Undefined) (patients for whom 3 replicate spectra produced discrepant results); 117 samples were not evaluable due to hemolysis and we could not assign a VeriStrat label to one patient due to data inconsistencies between available samples.\nThe classifier assigned a class label to the samples, either “Good” or “Poor” or in a few instances “undefined.” The class labels were assigned using a K-nearest neighbor (KNN) scoring algorithm based on a comparison of the spectra, after preprocessing and calculation of integrated intensity values at selected features in the spectra, with a training set of class-labeled spectra from other cancer patients.\nIn our retrospective analysis of the EGF30008 study, we obtained serum samples from the patients participating in the study, subjected them to our VeriStrat test, and the samples were assigned class labels of Good or Poor, depending on the outcome of the KNN algorithm in the classifier.\nA Cox Proportional Hazard Model analysis was carried out including VeriStrat classification, treatment arm, and an interaction term between the two."}, "[3]": {"test_system": "early breast cancer patients", "settings": "5 years of treatment, versus tamoxifen, hormone receptor-positive women; cited from earlier work"}}, "note": "Read-outs that look alike come from different tables or passages of the source.", "data": [{"smiles": "N#Cc1ccc(C(c2ccc(C#N)cc2)n2cncn2)cc1", "note": "[letrozole]", "values": [{"measurement": "Overall response rate (ORR)", "setting": "[1]", "result": "significantly superior to anastrozole"}, {"measurement": "HR for PFS, VeriStrat Good vs VeriStrat Poor within the treatment arm (95% CI)", "setting": "[2]; HER2+ patients", "result": 0.29}, {"measurement": "Median PFS", "setting": "[2]; HER2+ patients, VeriStrat Good", "result": 3.0, "unit": "months"}, {"measurement": "Median PFS", "setting": "[2]; HER2+ patients, VeriStrat Poor", "result": 2.3, "unit": "months"}, {"measurement": "HR for PFS, VeriStrat Good vs VeriStrat Poor within the treatment arm (95% CI)", "setting": "[2]; HER2+ patients, listed as Let only", "result": "0.29 (0.09-0.98)"}, {"measurement": "Median PFS", "setting": "[2]; HER2- patients, VeriStrat Good", "result": 13.6, "unit": "months"}, {"measurement": "Median PFS", "setting": "[2]; HER2- patients, VeriStrat Poor", "result": 3.1, "unit": "months"}, {"measurement": "HR for PFS, VeriStrat Good vs VeriStrat Poor within the treatment arm (95% CI)", "setting": "[2]; HER2- patients, listed as Let only", "result": "0.37 (0.21-0.64)"}, {"measurement": "HR for PFS, VeriStrat Good vs VeriStrat Poor within the treatment arm (95% CI)", "setting": "[2]; HER2- patients, listed as letrozole+placebo", "result": 0.37}, {"measurement": "Median PFS", "setting": "[2]; overall population, VeriStrat Good patients", "result": 10.8, "unit": "months"}, {"measurement": "Median PFS", "setting": "[2]; overall population, VeriStrat Poor patients", "result": 2.8, "unit": "months"}, {"measurement": "HR for PFS, VeriStrat Good vs VeriStrat Poor within the treatment arm (95% CI)", "setting": "[2]; overall population, listed as Let only", "result": "0.36 (0.23-0.58)"}, {"measurement": "HR for PFS, VeriStrat Good vs VeriStrat Poor within the treatment arm (95% CI)", "setting": "[2]; overall population, listed as letrozole+placebo", "result": 0.36}]}, {"smiles": "CC(C)(C#N)c1cc(Cn2cncn2)cc(C(C)(C)C#N)c1", "note": "[anastrozole]", "values": [{"measurement": "Reduction in recurrence rates", "setting": "[3]", "result": 26, "unit": "%"}]}, {"smiles": "CS(=O)(=O)CCNCc1ccc(-c2ccc3ncnc(Nc4ccc(OCc5cccc(F)c5)c(Cl)c4)c3c2)o1", "note": "[lapatinib]", "values": [{"measurement": "Patient outcome on addition of lapatinib to letrozole", "setting": "[2]; VeriStrat Good group", "result": "little or no clinical benefit"}, {"measurement": "Patient outcome on addition of lapatinib to letrozole", "setting": "[2]; VeriStrat Poor group", "result": "significantly improves patient outcome"}]}]}
